Source: paper PMC4013547 (ACS chemical biology, 2013)

Target: Ldtfm (E. faecium L,D-transpeptidase, catalytic domain) (Enterococcus faecium, UniProt Q3Y185)
Experiment: NMR chemical shift perturbation
Assay type: binding
Conditions: covalent; active-site cysteine Cys442; Pocket 1

Row | Structure (SMILES) | NMR chemical shift perturbation
1 | C[C@@H](O)[C@H]1C(=O)N2C(C(=O)O)=C(S[C@@H]3CN[C@H](CNS(N)(=O)=O)C3)[C@H](C)[C@H]12 [doripenem] | NMR chemical shift perturbations observed with imipenem, doripenem and meropenem
2 | C[C@@H](O)[C@H]1C(=O)N2C(C(=O)O)=C(SCCN=CN)C[C@H]12 [imipenem] | NMR chemical shift perturbations observed with imipenem, doripenem and meropenem
3 | C[C@@H](O)[C@H]1C(=O)N2C(C(=O)O)=C(S[C@@H]3CN[C@H](C(=O)N(C)C)C3)[C@H](C)[C@H]12 [meropenem] | NMR chemical shift perturbations observed with imipenem, doripenem and meropenem
